Data from ChEMBL document CHEMBL1201862, “PubChem BioAssay data set” (2004).
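In this assay, cells in 96-well plates receive the compound at five concentrations for 48 hours. Endpoints are linearly interpolated between the surrounding concentrations. Abbreviation: GI50, concentration required for 50% inhibition of growth.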 Activity calls are given as the source filed them. Cut-off read from the data, not from the text of the source: active = GI50 up to about 1.1 µM and inactive = higher.

Columns and labels:
Assay in all cases: growth of human tumour cells (NCI), 48 h
LOX IMVI = system: LOX IMVI
PC-3 = system: PC-3
A549 = system: A549
OVCAR-4 = system: OVCAR-4
SK-MEL-28 = system: SK-MEL-28
SW-620 = system: SW-620
EKVX = system: EKVX
MOLT-4 = system: MOLT-4
SF-268 = system: SF-268
K562 = system: K562
HOP-92 = system: HOP-92
MCF7 = system: MCF7
CCRF-CEM = system: CCRF-CEM
SN12C = system: SN12C
COLO 205 = system: COLO 205
IGROV-1 = system: IGROV-1
T47D = system: T47D
NCI-H460 = system: NCI-H460
SNB-19 = system: SNB-19
SF-295 = system: SF-295

SMILES | GI50 (LOX IMVI) | GI50 (PC-3) | GI50 (A549) | GI50 (OVCAR-4) | GI50 (SK-MEL-28) | GI50 (SW-620) | GI50 (EKVX) | GI50 (MOLT-4) | GI50 (SF-268) | GI50 (K562) | GI50 (HOP-92) | GI50 (MCF7) | GI50 (CCRF-CEM) | GI50 (SN12C) | GI50 (COLO 205) | GI50 (IGROV-1) | GI50 (T47D) | GI50 (NCI-H460) | GI50 (SNB-19) | GI50 (SF-295)
C=C(Br)COc1ccc2c(C)cc(=O)oc2c1 | > 100 µM (inactive) | > 100 µM (inactive) | 61.5 µM (inactive) | 50.7 µM (inactive) | > 100 µM (inactive) | > 100 µM (inactive) | 43.3 µM (inactive) | 34.4 µM (inactive) | 69 µM (inactive) | 49 µM (inactive) | 12.5 µM (inactive) | < 0.01 µM (active) | > 100 µM (inactive) | > 100 µM (inactive) | 1.99 µM (inactive) | 49.3 µM (inactive) | 20.2 µM (inactive) | 88.5 µM (inactive) | > 100 µM (inactive) | 
CCCCCNC1=CC(=O)c2ccccc2C1=O | 22.6 µM (inactive) | 37.6 µM (inactive) | 42.8 µM (inactive) | 59.7 µM (inactive) | > 100 µM (inactive) | > 100 µM (inactive) | > 58.9 µM (inactive) | > 100 µM (inactive) | 25.1 µM (inactive) | > 100 µM (inactive) | 17.4 µM (inactive) | > 72.3 µM (inactive) | > 100 µM (inactive) | 49.9 µM (inactive) | 79.6 µM (inactive) | 33.2 µM (inactive) | 27.5 µM (inactive) | 34.5 µM (inactive) | 24.3 µM (inactive) | 26.3 µM (inactive)
CC(C)CC(=O)NC(NC(C)C)(C(F)(F)F)C(F)(F)F | > 100 µM (inactive) | > 100 µM (inactive) | > 100 µM (inactive) | > 100 µM (inactive) | > 100 µM (inactive) | > 100 µM (inactive) | > 100 µM (inactive) | > 100 µM (inactive) | > 100 µM (inactive) | > 100 µM (inactive) | > 100 µM (inactive) | > 100 µM (inactive) | > 100 µM (inactive) | > 100 µM (inactive) | > 100 µM (inactive) | > 100 µM (inactive) | > 100 µM (inactive) | > 100 µM (inactive) | > 100 µM (inactive) | 
O=C(/N=S(/NC(=O)c1ccccc1)C(Cl)(Cl)Cl)c1ccccc1 (stereo unspecified) | 10.6 µM (inactive) | 46.2 µM (inactive) | > 56.9 µM (inactive) | 17.4 µM (inactive) | 25.3 µM (inactive) | 3.57 µM (inactive) | 19.7 µM (inactive) | 6.97 µM (inactive) | 50.2 µM (inactive) | 8.91 µM (inactive) | 32.3 µM (inactive) | 24 µM (inactive) | 2.7 µM (inactive) | 24.7 µM (inactive) | 14.8 µM (inactive) | 8.47 µM (inactive) | 26.9 µM (inactive) | 30.5 µM (inactive) | 51.2 µM (inactive) | 9.25 µM (inactive)
O=C(Nc1ccc(Cl)cc1)NS(=O)(=O)c1coc2ccccc2c1=O | > 10 µM (inactive) | > 10 µM (inactive) | > 10 µM (inactive) | > 10 µM (inactive) | > 10 µM (inactive) | > 10 µM (inactive) | > 10 µM (inactive) | > 10 µM (inactive) | > 10 µM (inactive) |  | > 10 µM (inactive) | > 10 µM (inactive) | > 10 µM (inactive) | > 10 µM (inactive) | > 10 µM (inactive) | > 10 µM (inactive) | > 10 µM (inactive) | > 10 µM (inactive) | > 10 µM (inactive) | > 10 µM (inactive)
[C-]#[N+]C1(C(=O)OCC)CC1 | > 100 µM (inactive) | > 100 µM (inactive) | > 100 µM (inactive) | > 100 µM (inactive) | > 100 µM (inactive) | > 100 µM (inactive) | > 100 µM (inactive) | > 100 µM (inactive) | > 100 µM (inactive) | > 100 µM (inactive) | > 100 µM (inactive) | > 100 µM (inactive) | > 100 µM (inactive) | > 100 µM (inactive) |  | > 100 µM (inactive) | > 100 µM (inactive) | > 100 µM (inactive) | > 100 µM (inactive) | > 100 µM (inactive)
COc1ccc(N2CCN(Cc3c(C(C)=O)[n+]([O-])c4ccccc4[n+]3[O-])CC2)cc1 | 56.4 µM (inactive) | 87.5 µM (inactive) | 40.3 µM (inactive) | 38.3 µM (inactive) | 43.3 µM (inactive) | 42.2 µM (inactive) | 75.3 µM (inactive) |  | 21.1 µM (inactive) | > 100 µM (inactive) | 32.5 µM (inactive) | 24.2 µM (inactive) | 61.1 µM (inactive) | 41.2 µM (inactive) | 60.8 µM (inactive) | 32.4 µM (inactive) | 57.3 µM (inactive) | 87.5 µM (inactive) | 35.3 µM (inactive) | 51.8 µM (inactive)
O=C(/C(Cl)=C/c1ccccc1)c1ccccc1 | 2.11 µM (inactive) | 2.61 µM (inactive) | 10.9 µM (inactive) | 4.41 µM (inactive) | 2.29 µM (inactive) | 1.84 µM (inactive) | 11.2 µM (inactive) | 2.61 µM (inactive) | 7.06 µM (inactive) | 2.06 µM (inactive) | 3.13 µM (inactive) | 2.05 µM (inactive) | 0.692 µM (active) | 1.82 µM (inactive) | 2.58 µM (inactive) |  | 4.07 µM (inactive) | 8.71 µM (inactive) | 15.1 µM (inactive) | 17.5 µM (inactive)
CS/C(=N/S(=O)(=O)c1ccc(Cl)cc1)NCCCN/C(=N\S(=O)(=O)c1ccc(Cl)cc1)SC | 14 µM (inactive) | 4.62 µM (inactive) |  | 3.56 µM (inactive) | 25.8 µM (inactive) | 45.6 µM (inactive) | 12.7 µM (inactive) | 4.8 µM (inactive) | 9.48 µM (inactive) | 6.11 µM (inactive) | 1.81 µM (inactive) | 8.28 µM (inactive) | 16.7 µM (inactive) | 5.08 µM (inactive) | 21.5 µM (inactive) | 30.4 µM (inactive) | 7.35 µM (inactive) | 10.2 µM (inactive) | 80.7 µM (inactive) | 12.7 µM (inactive)
CCOC(=O)[C@@H]1[C@@H]2NC(=O)N[C@@]1(C)Oc1ccccc12 | > 100 µM (inactive) | > 100 µM (inactive) |  | > 100 µM (inactive) | > 100 µM (inactive) | > 100 µM (inactive) | > 100 µM (inactive) | > 100 µM (inactive) | > 100 µM (inactive) | > 100 µM (inactive) | > 100 µM (inactive) | > 100 µM (inactive) | > 100 µM (inactive) | > 100 µM (inactive) | > 100 µM (inactive) | > 100 µM (inactive) | > 100 µM (inactive) | > 100 µM (inactive) | > 100 µM (inactive) | > 100 µM (inactive)
CCN(CC)CCC1CCCCN1CC(=O)N1c2cc(Cl)ccc2NC(=O)CC1C (stereo unspecified) | > 100 µM (inactive) | > 100 µM (inactive) | > 100 µM (inactive) | > 100 µM (inactive) | > 100 µM (inactive) |  | > 100 µM (inactive) | > 100 µM (inactive) | > 100 µM (inactive) | > 100 µM (inactive) | > 100 µM (inactive) | > 100 µM (inactive) | > 100 µM (inactive) | > 100 µM (inactive) | > 100 µM (inactive) | > 100 µM (inactive) | > 100 µM (inactive) | > 100 µM (inactive) | > 100 µM (inactive) | > 100 µM (inactive)
